This test deals with T1, SIRT1 (Homo sapiens, UniProt Q96EB6).
T1 sequence (Q96EB6 1-747): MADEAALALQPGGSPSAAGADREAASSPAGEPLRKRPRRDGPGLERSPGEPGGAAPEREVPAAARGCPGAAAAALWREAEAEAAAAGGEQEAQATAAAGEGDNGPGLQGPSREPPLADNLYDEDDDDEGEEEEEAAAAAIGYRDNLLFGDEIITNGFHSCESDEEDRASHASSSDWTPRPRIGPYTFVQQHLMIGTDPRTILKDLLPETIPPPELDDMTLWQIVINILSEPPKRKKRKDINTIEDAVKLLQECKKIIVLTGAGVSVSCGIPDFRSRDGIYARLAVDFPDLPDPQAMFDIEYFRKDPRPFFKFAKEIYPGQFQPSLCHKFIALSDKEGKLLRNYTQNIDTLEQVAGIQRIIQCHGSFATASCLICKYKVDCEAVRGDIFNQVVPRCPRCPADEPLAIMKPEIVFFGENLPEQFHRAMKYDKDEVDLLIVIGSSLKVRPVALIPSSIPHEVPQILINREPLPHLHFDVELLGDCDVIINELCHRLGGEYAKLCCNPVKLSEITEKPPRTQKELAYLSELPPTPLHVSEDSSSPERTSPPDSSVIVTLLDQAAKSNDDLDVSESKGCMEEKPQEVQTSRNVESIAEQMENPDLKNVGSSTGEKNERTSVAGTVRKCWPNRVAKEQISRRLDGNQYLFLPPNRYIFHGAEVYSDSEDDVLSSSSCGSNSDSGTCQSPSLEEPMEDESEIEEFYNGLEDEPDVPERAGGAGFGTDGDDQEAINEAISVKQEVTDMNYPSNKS
Nature of the test: Mass spectrometry based SIRT1 deacetylase activation assay (acetylated p53-derived peptide substrate). The test is classed as biochemical. Conditions: 0.5 μM peptide substrate, 120 μM βNAD+, 10 nM SIRT1, 25 min at 25° C.; for EC1.5: read-out: EC1.5.

The values below come from patent US8846947B2, “Benzimidazoles and related analogs as sirtuin modulators” (GlaxoSmithKline LLC, priority 2008, dated 2014).

Consider `O=C(Nc1ccccn1)c1cccc2[nH]c(-c3cc(Cl)ccc3C(F)(F)F)nc12` [Compound 429], for which the “Fold Act. (percent maximum fold activation)” value is “B (Fold Activation <200%)” and the EC1.5 is greater than 25000 nM.

For `O=C(Nc1cccnc1)c1cccc2[nH]c(-c3ccc(N4CCOCC4)cc3C(F)(F)F)nc12` [Compound 430, 2-(4-morpholino-2-(trifluoromethyl)phenyl)-N-(pyridin-3-yl)-1H-benzo[d]imidazole-4-carboxamide], the “Fold Act. (percent maximum fold activation)” value is given as “A (Fold activation >200%)” and the EC1.5 was less than 1000 nM.

For `O=C(NC1CCNCC1)c1cccc2[nH]c(-c3ccccc3C(F)(F)F)nc12` [Compound 431], the “Fold Act. (percent maximum fold activation)” value was “B (Fold Activation <200%)” and the EC1.5 is greater than 25000 nM.

`O=C(Nc1cccnn1)c1cccc2[nH]c(-c3ccc(Cl)cc3C(F)(F)F)nc12` [Compound 432]: the “Fold Act. (percent maximum fold activation)” value is recorded as “A (Fold activation >200%)” and the EC1.5 is less than 1000 nM.

`O=C(NCc1ccccn1)c1cccc2[nH]c(-c3ccc(Cl)cc3C(F)(F)F)nc12` [Compound 433]: the “Fold Act. (percent maximum fold activation)” value is “B (Fold Activation <200%)” and the EC1.5 lay in the range of 1000 to 25000 nM.

Turning to `O=C(NC1CCOCC1)c1cccc2[nH]c(-c3ccc(Cl)cc3C(F)(F)F)nc12` [Compound 434], the “Fold Act. (percent maximum fold activation)” value was “B (Fold Activation <200%)” and the EC1.5 was 1000 to 25000 nM.

As for `O=C(NCc1ccccn1)c1cccc2[nH]c(-c3ccc(F)cc3C(F)(F)F)nc12` [Compound 435], the “Fold Act. (percent maximum fold activation)” value is given as “B (Fold Activation <200%)” and the EC1.5 was in the range of 1000 to 25000 nM.

As to `O=C(NC1CCOCC1)c1cccc2[nH]c(-c3ccc(F)cc3C(F)(F)F)nc12` [Compound 436], the “Fold Act. (percent maximum fold activation)” value was “B (Fold Activation <200%)” and the EC1.5 lay within 1000 to 25000 nM.

With `O=C(NC1CCOCC1)c1cccc2[nH]c(-c3cc(F)ccc3C(F)(F)F)nc12` [Compound 437], the “Fold Act. (percent maximum fold activation)” value is reported as “B (Fold Activation <200%)” and the EC1.5 was greater than 25000 nM.

As for `O=C(NC1CCNCC1)c1cccc2[nH]c(-c3cc(F)ccc3C(F)(F)F)nc12` [Compound 438], the “Fold Act. (percent maximum fold activation)” value was “B (Fold Activation <200%)” and the EC1.5 was greater than 25000 nM.

As to `CN1CCOc2cc(-c3nc4c(C(=O)Nc5ccccn5)cccc4[nH]3)cnc21` [Compound 439], the “Fold Act. (percent maximum fold activation)” value is recorded as “B (Fold Activation <200%)” and the EC1.5 is greater than 25000 nM.

Regarding `Cc1cnc(NC(=O)c2cccc3[nH]c(-c4cnc5c(c4)OCCN5C)nc23)s1` [Compound 440], the “Fold Act. (percent maximum fold activation)” value is recorded as “A (Fold activation >200%)” and the EC1.5 was less than 1000 nM.

For `O=C(Nc1nccs1)c1cccc2[nH]c(-c3ccc(OC4CCNC4)cc3)nc12` (centres unmarked) [Compound 441], the “Fold Act. (percent maximum fold activation)” value is reported as “A (Fold activation >200%)” and the EC1.5 is less than 1000 nM.

On to `O=C(Nc1ccccn1)c1cccc2[nH]c(-c3ccc(OC4CCNC4)cc3)nc12` (centres unmarked) [Compound 442], for which the “Fold Act. (percent maximum fold activation)” value is reported as “A (Fold activation >200%)” and the EC1.5 was less than 1000 nM.

In the case of `O=C(NC1CCOC1=O)c1cccc2[nH]c(-c3ccnn3-c3ccccc3)nc12` (centres unmarked) [Compound 443], the “Fold Act. (percent maximum fold activation)” value is “B (Fold Activation <200%)” and the EC1.5 was greater than 25000 nM.

On to `CCCN1CCc2cc(-c3nc4c(C(=O)Nc5nccs5)cccc4[nH]3)ccc21` [Compound 444], for which the “Fold Act. (percent maximum fold activation)” value is given as “B (Fold Activation <200%)” and the EC1.5 was greater than 25000 nM.

Take `CC1(C)Cc2cc(-c3nc4c(C(=O)Nc5nccs5)cccc4[nH]3)ccc2O1` [Compound 445]: the “Fold Act. (percent maximum fold activation)” value was “A (Fold activation >200%)” and the EC1.5 was 1000 to 25000 nM.

In the case of `O=C(Nc1nccs1)c1cccc2[nH]c(-c3ccnc(N4CCCC4)c3)nc12` [Compound 446], the “Fold Act. (percent maximum fold activation)” value was “B (Fold Activation <200%)” and the EC1.5 is less than 1000 nM.

As for `O=C(Nc1nccs1)c1cccc2[nH]c(-c3ccc(OC4CCNCC4)cc3)nc12` [Compound 447], the “Fold Act. (percent maximum fold activation)” value is “A (Fold activation >200%)” and the EC1.5 was less than 1000 nM.

Turning to `O=C(Nc1nccs1)c1cccc2[nH]c(-c3cc(N4CCOCC4)ccc3C(F)(F)F)nc12` [Compound 448], the “Fold Act. (percent maximum fold activation)” value is “A (Fold activation >200%)” and the EC1.5 is less than 1000 nM.

`O=C(Nc1ccccn1)c1cccc2[nH]c(-c3cc(N4CCOCC4)ccc3C(F)(F)F)nc12` [Compound 449]: the “Fold Act. (percent maximum fold activation)” value was “A (Fold activation >200%)” and the EC1.5 was less than 1000 nM.

Consider `O=C(Nc1cccnc1)c1cccc2[nH]c(-c3cc(N4CCOCC4)ccc3C(F)(F)F)nc12` [Compound 450, 2-(5-morpholino-2-(trifluoromethyl)phenyl)-N-(pyridin-3-yl)-1H-benzo[d]imidazole-4-carboxamide], for which the “Fold Act. (percent maximum fold activation)” value is recorded as “A (Fold activation >200%)” and the EC1.5 was less than 1000 nM.

On to `O=C(Nc1cccnn1)c1cccc2[nH]c(-c3ccccc3C(F)(F)F)nc12` [Compound 451], for which the “Fold Act. (percent maximum fold activation)” value is “A (Fold activation >200%)” and the EC1.5 was less than 1000 nM.

Regarding `Cc1cc(NC(=O)c2cccc3[nH]c(-c4ccc(Cl)cc4C(F)(F)F)nc23)no1` [Compound 452], the “Fold Act. (percent maximum fold activation)” value is given as “A (Fold activation >200%)” and the EC1.5 is less than 1000 nM.

In the case of `O=C(NC1CCNCC1)c1cccc2[nH]c(-c3ccc(Cl)cc3C(F)(F)F)nc12` [Compound 453], the “Fold Act. (percent maximum fold activation)” value is “B (Fold Activation <200%)” and the EC1.5 was greater than 25000 nM.

For the compound `O=C(NC1CCNCC1)c1cccc2[nH]c(-c3ccc(F)cc3C(F)(F)F)nc12` [Compound 454], the “Fold Act. (percent maximum fold activation)” value is reported as “B (Fold Activation <200%)” and the EC1.5 was greater than 25000 nM.

Take `Cc1cc(NC(=O)c2cccc3[nH]c(-c4cc(F)ccc4C(F)(F)F)nc23)no1` [Compound 455]: the “Fold Act. (percent maximum fold activation)” value is recorded as “A (Fold activation >200%)” and the EC1.5 was less than 1000 nM.

As for `O=C(Nc1cccnn1)c1cccc2[nH]c(-c3cc(F)ccc3C(F)(F)F)nc12` [Compound 456], the “Fold Act. (percent maximum fold activation)” value is given as “A (Fold activation >200%)” and the EC1.5 was less than 1000 nM.

With `CN1CCOc2cc(-c3nc4c(C(=O)Nc5cccnn5)cccc4[nH]3)cnc21` [Compound 457], the “Fold Act. (percent maximum fold activation)” value is “A (Fold activation >200%)” and the EC1.5 is less than 1000 nM.

On to `Cc1nc(NC(=O)c2cccc3[nH]c(-c4cnc5c(c4)OCCN5C)nc23)sc1C` [Compound 458], for which the “Fold Act. (percent maximum fold activation)” value is listed as “A (Fold activation >200%)” and the EC1.5 was less than 1000 nM.

Turning to `O=C(Nc1nccs1)c1cccc2[nH]c(-c3ccccc3OC3CCNC3)nc12` (centres unmarked) [Compound 459, 2-(2-(pyrrolidin-3-yloxy)phenyl)-N-(thiazol-2-yl)-1H-benzo[d]imidazole-4-carboxamide], the “Fold Act. (percent maximum fold activation)” value is given as “A (Fold activation >200%)” and the EC1.5 was in the range of 1000 to 25000 nM.

As for `O=C(Nc1ccccn1)c1cccc2[nH]c(-c3ccccc3OC3CCNC3)nc12` (centres unmarked) [Compound 460], the “Fold Act. (percent maximum fold activation)” value is given as “A (Fold activation >200%)” and the EC1.5 fell in the range of 1000 to 25000 nM.

Consider `Cc1cc(C)nc(NC(=O)c2cccc3[nH]c(-c4cnc5c(c4)OCCN5C)nc23)c1` [Compound 461], for which the “Fold Act. (percent maximum fold activation)” value is on record as “A (Fold activation >200%)” and the EC1.5 was less than 1000 nM.

Take `O=C(Nc1nccs1)c1cccc2[nH]c(-c3cccc(OC4CCNC4)c3)nc12` (centres unmarked) [Compound 462]: the “Fold Act. (percent maximum fold activation)” value is reported as “A (Fold activation >200%)” and the EC1.5 was less than 1000 nM.

For the compound `O=C(Nc1ccccn1)c1cccc2[nH]c(-c3cccc(OC4CCNC4)c3)nc12` (centres unmarked) [Compound 463], the “Fold Act. (percent maximum fold activation)” value is “A (Fold activation >200%)” and the EC1.5 was in the range of 1000 to 25000 nM.

As for `Cc1cc(NC(=O)c2cccc3[nH]c(-c4ccc(F)cc4C(F)(F)F)nc23)no1` [Compound 464], the “Fold Act. (percent maximum fold activation)” value is on record as “A (Fold activation >200%)” and the EC1.5 was less than 1000 nM.

Take `O=C(Nc1cccnn1)c1cccc2[nH]c(-c3ccc(F)cc3C(F)(F)F)nc12` [Compound 465]: the “Fold Act. (percent maximum fold activation)” value is on record as “A (Fold activation >200%)” and the EC1.5 is less than 1000 nM.

With `Cc1cc(NC(=O)c2cccc3[nH]c(-c4ccnn4-c4ccccc4)nc23)no1` [Compound 466], the “Fold Act. (percent maximum fold activation)” value is recorded as “A (Fold activation >200%)” and the EC1.5 lay in the range of 1000 to 25000 nM.

With `O=C(Nc1cccnn1)c1cccc2[nH]c(-c3ccnn3-c3ccccc3)nc12` [Compound 467], the “Fold Act. (percent maximum fold activation)” value is “A (Fold activation >200%)” and the EC1.5 is 1000 to 25000 nM.

Take `O=C(NCc1ccccn1)c1cccc2[nH]c(-c3ccnn3-c3ccccc3)nc12` [Compound 468]: the “Fold Act. (percent maximum fold activation)” value is on record as “B (Fold Activation <200%)” and the EC1.5 was greater than 25000 nM.
